{"source": "patent US12331088B2", "about": "“Method for the treatment of a relapsing-remitting condition” (Revolo Biotherapeutics Limited, priority 2017, dated 2025)", "key": {"[1]": {"system": "mice infected with H3N2 influenza (A/x31) and challenged with poly I:C", "experiment": "Model of ARDS associated to influenza A virus (IAV) infection with Poly I:C challenge, BAL cells, cytokines, lung viral titre", "assay_type": "in vivo", "settings": "for Lymphocyte infiltration / Macrophage infiltration / Neutrophil infiltration: SEQ ID NO:1 80-800 μg/Kg iv q.d., Dex 10 mg/kg ip q.d.; for BAL Lymphocytes / BAL Macrophages / BAL Neutrophils: IAV/Poly I:C, 48 hrs after Poly I:C", "procedure": "Mice were infected intranasally with a H3N2 strain of influenza (A/x31; 1×10^3 pfu). Three days after infection (time of peak viral load in the lung), animals received a dose of the viral mimetic polyinosinic-polycytidylic acid (poly I:C) or vehicle (PBS). Initially, dose response and time course studies with Poly I:C were done to establish conditions to show exacerbated lung inflammation after viral challenge (30 μg/animal and 48 hrs after Poly I:C challenge, respectively). SEQ ID NO:1 (80-800 μg/Kg) or vehicle were administered q.d. intravenously, 15 min before Poly I:C and 24 hrs later. Positive control Dexamethasone (Dex) was administered q.d. intraperitoneally (10 mg/kg) 1 hr before poly I:C challenge and 24 hrs later. 48 hrs after Poly I:C challenge, bronchoalveolar lavage (BAL) fluid was collected for differential cell counts and to measure cytokines using a multiplex immunoassay. Lung tissue was also collected to determine the viral titre."}, "[2]": {"system": "ovalbumin sensitised BALB/c mice", "settings": "mouse, in vivo"}, "[3]": {"system": "HDM-induced pulmonary inflammation in Balb/C mice", "experiment": "House dust mite (HDM)-induced pulmonary inflammation, 3 week i.n. HDM sensitisation model, BAL cell influx and cytokines", "assay_type": "in vivo", "procedure": "The objective of the study was to investigate the inhibitory effects of 3 different concentrations of the peptides in a saline solution on house dust mite (HDM)-induced pulmonary inflammation in Balb/C mice using a 3 week intranasal (i.n.) HDM sensitisation model. Results are shown for SEQ ID NO: 1. This study also looked at time point effects of SEQ ID NO: 1; in addition to 7 day post HDM challenge, a further time point, 4 h post a second HDM challenge (14 days after the first HDM challenge), was investigated to assess the effects of SEQ ID NO: 1 on remission of the allergic response.\nA 3 week sensitisation and challenge model was applied where n=90 female Balb/C mice of approximately 6-8 weeks of age, approximately 20-25 g at start of study were used.\nFollowing 11 days' acclimatisation all mice received 25 μg (total protein) HDM delivered i.n. 5 days/week for 3 weeks. HDM sensitisation was carried out each day of dosing and all intranasal dosing was performed where the mice were lightly anaesthetised using isoflurane.\nTwo weeks after the final HDM sensitisation dose all mice received a single 50 μL i.n. dose of a saline solution of the peptide or saline (0.9% w/v Sodium Chloride) vehicle solution. For SEQ ID NO: 1, dose solutions were 0.02 μg/kg, 0.2 μg/kg and 2 μg/kg. 15 minutes post peptide or saline vehicle dose all mice received a single 50 uL challenge administered i.n. of saline (0.9% w/v Sodium Chloride) or 100 μg HDM.\nSome groups of animals received a second 50 μL i.n. administered dose of either saline or HDM 100 μg dose four weeks post sensitisation. Animals were then euthanised 4 hrs post second challenge (corresponding to 14 days post dosing).\nThe lungs were lavaged via the trachea with 1 mL of BAL (bronchoalveolar lavage) fluid. Samples were placed on wet ice (4° C.) and a differential cell count using a Sysmex XT2000i vet cell analyser was performed before the BAL sample was centrifuged at 1300 rcf for 7 min. A 200 μL BAL supernatant sample was put in a polypropylene U bottom 96 well plate and frozen at −20° C. for subsequent cytokine analysis using a standard MSD protocol.\nData analysis was performed using Graphpad PRISM 6. The statistical tests applied to determine statistical significance were analysis of variance (ANOVA) followed by a post-hoc test or an unpaired T-test."}, "[4]": {"system": "THP-1 differentiated macrophages", "experiment": "IL-10 release from LPS stimulated macrophages (alphaLISA)", "assay_type": "cell-based, human", "settings": "1 nM; top LPS doses 1-10 μg/mL; 6 hours after LPS stimulation", "procedure": "THP-1 monocytic human cells were differentiated into macrophages with 50 nM phorbol myristate acetate for 48 hrs on a 96 well plate (100K cells/well).\nMacrophages were stimulated with increasing concentrations of bacterial lipopolysaccharide (LPS 10^−6-10 μg/mL) in the presence or absence of SEQ ID NO:1 (1 nM). 30 μL of cell media was sampled at 6 hours after LPS stimulation and an IL-10 alphaLISA was run to measure the release of IL-10."}, "[5]": {"system": "animal model of allergic airway inflammation", "settings": "disclosed in WO2009/106819; cited from earlier work"}, "[6]": {"system": "dendritic cells from CD14+ monocytes of healthy donors", "assay_type": "cell-based, human", "settings": "400 ng/mL + LPS/IFNγ"}, "[7]": {"settings": "48 hrs after Poly I:C challenge"}, "[8]": {"settings": "2 μg/kg i.n. single dose, 7 day time point, compared to saline/HDM"}, "[9]": {"settings": "2 μg/kg i.n. single dose, 14 day time point, 4 hrs post second HDM challenge, compared to saline/HDM"}, "[10]": {"settings": "2 μg/kg i.n., 14 days time point, compared to saline/HDM"}, "[11]": {"settings": "48 hrs after Poly I:C challenge, multiplex immunoassay"}}, "note": "Ends that are not written are not given here.", "data": [{"compound": "C[C@@H]1C[C@H]2[C@@H]3CCC4=CC(=O)C=C[C@]4(C)[C@@]3(F)[C@@H](O)C[C@]2(C)[C@@]1(O)C(=O)CO", "note": "[Dex, Dexamethasone, reference compound]", "values": [{"measurement": "Lymphocyte infiltration", "setting": "[1]; [7]", "value": "no effect"}, {"measurement": "Macrophage infiltration", "setting": "[1]; [7]", "value": "no effect"}, {"measurement": "Neutrophil infiltration", "setting": "[1]; [7]", "value": "no effect"}, {"measurement": "BAL Lymphocytes", "setting": "[1]; 10 mg/kg ip", "value": "9.4 ± 0.7 ×10^4/mL"}, {"measurement": "BAL Macrophages", "setting": "[1]; 10 mg/kg ip", "value": "40.90 ± 0.2 ×10^4/mL"}, {"measurement": "BAL Neutrophils", "setting": "[1]; 10 mg/kg ip", "value": "35.7 ± 2.6 ×10^4/mL"}]}, {"compound": "DGSVVVNKVSEL-NH2 [SEQ ID NO:3]", "values": [{"measurement": "BAL eosinophil number", "setting": "[2]", "value": "significantly reduced"}, {"measurement": "BAL total number of cells", "setting": "[2]", "value": "significantly reduced"}]}, {"compound": "DGSVVVNKVSELPAGHGLNVNTLSYGDLAAD-OH [SEQ ID NO:1]", "values": [{"measurement": "BAL level of eosinophils", "setting": "[3]; [8]", "value": "decreased level of neutrophils and eosinophils compared to saline/HDM although not statistically significant"}, {"measurement": "BAL level of neutrophils", "setting": "[3]; [8]", "value": "decreased level of neutrophils and eosinophils compared to saline/HDM although not statistically significant"}, {"measurement": "BAL level of eosinophils", "setting": "[3]; [9]", "value": "significantly decreased level"}, {"measurement": "BAL level of lymphocytes", "setting": "[3]; [9]", "value": "significantly decreased level"}, {"measurement": "BAL level of neutrophils", "setting": "[3]; [9]", "value": "significantly decreased level"}, {"measurement": "BAL level of IL-4", "setting": "[3]; [10]", "value": "significant inhibition"}, {"measurement": "BAL level of IL-5", "setting": "[3]; [10]", "value": "significant inhibition"}, {"measurement": "BAL level of IL-13", "setting": "[3]; [10]", "value": "significant inhibition"}, {"measurement": "BAL release of anti inflammatory cytokine IL-10", "setting": "[3]; 0.02, 0.2, 2 μg/kg i.n., 7 days time point, compared to saline/HDM", "value": "significant dose response release"}, {"measurement": "BAL infiltrated macrophages", "setting": "[3]; SEQ ID NO:1 treated groups (0.02-2 μg/kg i.n.), 7 day time point", "value": "trend to an increase of infiltrated macrophages"}, {"measurement": "Circulating levels of peptide", "setting": "[2]", "value": "no longer detectable"}, {"measurement": "Intensity of the inflammatory response (BAL total cells, eosinophils)", "setting": "[2]", "value": "significantly reduced"}, {"measurement": "Recruitment of eosinophils after OVA re-challenge", "setting": "[2]", "value": "efficient in inhibiting the recruitment of eosinophils"}, {"measurement": "Release of IL-10", "setting": "[4]", "value": "potentiated the release of IL-10"}, {"measurement": "Recruitment of eosinophils", "setting": "[5]", "value": "significantly reduce the recruitment of eosinophils"}, {"measurement": "Lung viral titre", "setting": "[1]; [7]", "value": "no significant effect"}, {"measurement": "Lymphocyte infiltration", "setting": "[1]; [7]", "value": "significantly and dose dependently reduced"}, {"measurement": "Macrophage infiltration", "setting": "[1]; [7]", "value": "significantly and dose dependently reduced"}, {"measurement": "Neutrophil infiltration", "setting": "[1]; [7]", "value": "significantly and dose dependently reduced"}, {"measurement": "BAL G-CSF", "setting": "[1]; [11]", "value": "significant suppression"}, {"measurement": "BAL GM-CSF", "setting": "[1]; [11]", "value": "significant suppression"}, {"measurement": "BAL IFN-γ", "setting": "[1]; [11]", "value": "significant suppression"}, {"measurement": "BAL IL-1γ", "setting": "[1]; [11]", "value": "significant suppression"}, {"measurement": "BAL IL-6", "setting": "[1]; [11]", "value": "significant suppression"}, {"measurement": "BAL IL-10", "setting": "[1]; [11]", "value": "significant suppression"}, {"measurement": "BAL IL-17", "setting": "[1]; [11]", "value": "significant suppression"}, {"measurement": "BAL KC/IL-8", "setting": "[1]; [11]", "value": "significant suppression"}, {"measurement": "BAL MCP-1", "setting": "[1]; [11]", "value": "significant suppression"}, {"measurement": "BAL MIP-1α", "setting": "[1]; [11]", "value": "significant suppression"}, {"measurement": "BAL MIP-3α", "setting": "[1]; [11]", "value": "significant suppression"}, {"measurement": "BAL TNF-α", "setting": "[1]; [11]", "value": "significant suppression"}, {"measurement": "BAL Lymphocytes", "setting": "[1]; 80μ/kg iv", "value": "7.4 ± 0.5 ×10^4/mL"}, {"measurement": "BAL Macrophages", "setting": "[1]; 80μ/kg iv", "value": "40.3 ± 1.6 ×10^4/mL"}, {"measurement": "BAL Neutrophils", "setting": "[1]; 80μ/kg iv", "value": "30 ± 2.2 ×10^4/mL"}, {"measurement": "BAL Lymphocytes", "setting": "[1]; 800μ/kg iv", "value": "4.7 ± 0.5 ×10^4/mL"}, {"measurement": "BAL Macrophages", "setting": "[1]; 800μ/kg iv", "value": "24.1 ± 1.6 ×10^4/mL"}, {"measurement": "BAL Neutrophils", "setting": "[1]; 800μ/kg iv", "value": "15.3 ± 2.4 ×10^4/mL"}, {"measurement": "IL-10 gene expression (LPS/IFNγ suppression)", "setting": "[6]", "value": "significantly attenuate the LPS/IFNγ suppression of the IL-10 gene"}]}]}
